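Growth conditions: 96-well plates. Treatment: test compound, 48 hours, 5 concentrations. Analysis: linear interpolation between bracketing concentrations; unreached endpoints set to highest concentration. TGI: total growth inhibition.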
Tests used:
Test in all cases: growth of human tumour cells (NCI), 48 h
A549 NSCLC = system: A549 NSCLC
ACHN renal = system: ACHN renal
CCRF-CEM leukemia = system: CCRF-CEM leukemia
HCT-15 colon = system: HCT-15 colon
HL-60(TB) leukemia = system: HL-60(TB) leukemia
HT29 colon = system: HT29 colon
K-562 leukemia = system: K-562 leukemia
MOLT-4 leukemia = system: MOLT-4 leukemia
NCI-H23 lung = system: NCI-H23 lung
NCI-H522 lung = system: NCI-H522 lung
OVCAR-5 ovarian = system: OVCAR-5 ovarian
RPMI-8226 leukemia = system: RPMI-8226 leukemia
RXF 393 renal = system: RXF 393 renal
SK-MEL-2 melanoma = system: SK-MEL-2 melanoma
SR leukemia = system: SR leukemia
SW-620 colon = system: SW-620 colon
U251 CNS = system: U251 CNS
DU-145 prostate = system: DU-145 prostate
MDA-MB-231 breast = system: MDA-MB-231 breast
SK-OV-3 ovarian = system: SK-OV-3 ovarian

| SMILES | TGI (A549 NSCLC) [µM] | TGI (ACHN renal) [µM] | TGI (CCRF-CEM leukemia) [µM] | TGI (HCT-15 colon) [µM] | TGI (HL-60(TB) leukemia) [µM] | TGI (HT29 colon) [µM] | TGI (K-562 leukemia) [µM] | TGI (MOLT-4 leukemia) [µM] | TGI (NCI-H23 lung) [µM] | TGI (NCI-H522 lung) [µM] | TGI (OVCAR-5 ovarian) [µM] | TGI (RPMI-8226 leukemia) [µM] | TGI (RXF 393 renal) [µM] | TGI (SK-MEL-2 melanoma) [µM] | TGI (SR leukemia) [µM] | TGI (SW-620 colon) [µM] | TGI (U251 CNS) [µM] | TGI (DU-145 prostate) [µM] | TGI (MDA-MB-231 breast) [µM] | TGI (SK-OV-3 ovarian) [µM] |
| --- | --- | --- | --- | --- | --- | --- | --- | --- | --- | --- | --- | --- | --- | --- | --- | --- | --- | --- | --- | --- |
| CC(CN(C)C)C(=O)c1ccccc1 (stereo not drawn) | > 100 | > 56.5 | 27.2 | 33.4 | > 57 | 41.3 | > 100 | 27.6 | 68 | 4.32 | 96.1 | 19.8 | > 54.2 | 66.8 | 60.2 | 27 | > 100 | – | – | – |
| NC1Cc2ccccc2OC1=O (stereo not drawn) | > 100 | > 100 | – | > 100 | – | > 100 | > 100 | > 100 | > 100 | > 100 | > 100 | > 100 | > 100 | > 100 | > 100 | > 100 | > 100 | > 100 | > 100 | > 100 |
| N#CCN(CC#N)C1CC=CCC1N(CC#N)CC#N (stereo not drawn) | > 100 | > 100 | > 100 | > 100 | > 100 | > 100 | > 100 | > 100 | > 100 | > 100 | > 100 | > 100 | > 100 | > 100 | – | > 100 | > 100 | > 100 | > 100 | > 100 |
| COc1cc(C2c3cc4c(cc3[C@@H](Oc3ccc(F)cc3)C3COC(=O)[C@H]23)OCO4)cc(OC)c1O (stereo partly drawn) | > 100 | – | > 23.2 | > 100 | 1.06 | 20 | 30.4 | 4.66 | > 100 | > 100 | > 100 | 6.64 | – | > 100 | – | > 100 | > 100 | – | – | – |
| O=C(Nc1cccc2ccccc12)c1ccccc1 | > 100 | > 100 | > 100 | > 100 | > 100 | > 100 | > 100 | – | > 100 | > 100 | > 100 | – | > 100 | > 100 | – | > 100 | > 100 | > 100 | > 100 | > 100 |
| CCCC1(CCC)c2cc(/C=N\O)ccc2-c2ccc(-c3ccc(C(C)(C)C)cc3)cc21 | > 100 | > 100 | 68.8 | > 100 | 51.7 | > 100 | > 100 | 60.9 | > 100 | – | > 100 | > 100 | – | 99.3 | 73.1 | > 100 | – | > 100 | 39.7 | > 100 |
| COc1ccc(-n2c(=O)n(-c3ccccc3)c(=O)n2-c2ccc(OC)cc2)cc1 | > 100 | > 100 | > 100 | > 100 | > 100 | – | > 100 | > 100 | > 100 | > 100 | > 100 | > 100 | > 100 | > 100 | – | > 100 | > 100 | > 100 | > 100 | > 100 |
| O=C(NNS(=O)(=O)c1ccccc1)c1cccnc1 | > 100 | > 100 | > 100 | > 100 | > 100 | > 100 | > 100 | > 100 | > 100 | > 100 | > 100 | > 100 | > 100 | > 100 | – | > 100 | > 100 | > 100 | > 100 | > 100 |
| O=C(Nc1sccc1S(=O)(=O)c1ccccc1)c1ccccc1 | > 100 | > 100 | – | > 100 | – | > 100 | > 19.9 | > 100 | > 100 | > 100 | > 100 | > 100 | – | > 100 | – | > 100 | > 100 | > 100 | > 100 | > 100 |
| O=C1CCCCC/C1=C\c1ccccc1 | > 100 | > 100 | – | > 100 | > 100 | > 100 | > 100 | > 100 | > 100 | > 100 | > 100 | > 100 | – | > 100 | > 100 | > 100 | > 100 | > 100 | > 100 | > 100 |
| C=CCN(c1cc(OC)c2[nH]c(C(=O)OCC)c(C)c2c1[N+](=O)[O-])S(C)(=O)=O | > 100 | 69.5 | > 100 | > 100 | 46.5 | 35.5 | 31.4 | 28.9 | > 100 | 43.9 | 99.1 | 32.8 | 45.9 | 51.3 | – | > 100 | 31.6 | > 100 | 33.7 | > 100 |
| CO[C@@H]1C[C@H](OC(N)=O)[C@@H]2C=C[C@@H]3/C=C(C)/C=C/[C@@H](C)[C@H](/C(C)=C/[C@@H](C)NC(C)=O)OC(=O)/C=C/C=C(C)\C=C\[C@]3(C)[C@@H]2C1 | 0.223 | 0.613 | 7.59 | 0.717 | 3.04 | 0.278 | 8.38 | 13.8 | 2.84 | 0.103 | 3.63 | 0.353 | 0.455 | 2.12 | 5.11 | 1.24 | 0.375 | 2.43 | – | 0.192 |
| COC1CCC(=O)N1CN(C(C)=O)c1ccc(C)cc1 (stereo not drawn) | > 100 | > 100 | – | > 100 | – | > 100 | > 100 | > 100 | > 100 | – | > 100 | > 100 | > 100 | > 100 | > 100 | > 100 | > 100 | > 100 | > 100 | > 100 |
